From PMC5593639, “NSC30049 inhibits Chk1 pathway in 5-FU-resistant CRC bulk and stem cell populations” (Oncotarget, 2017)

Experiments:
[1] = test system: human-derived CRC stem cell tumors; assay: Patient-derived tumor xenograft (PDTX) of CRC stem cell tumors; assay type: in vivo, female SCID mice; conditions: 50 mg/kg body weight NSC49L every day, 30 days
Procedure: With the pharmacokinetics analysis and MTD data in hand, we determined the efficacy of NSC49L and 5-FU alone and in combination for the growth of human-derived CRC stem cell tumors in vivo. CRC stem cells were isolated and characterized from the freshly resected human CRC tumor. One thousands of these CRC stem cells were injected subcutaneously into the right flank of the four 5-week old female SCID mice. After 20 days the first generation tumors (F0) of approximately 2,000 mm^3 in size were harvested. They were divided into four equal pieces and implanted under the skin of the female SCID mice for the growth of second generation tumors (F1) for testing the drug efficacy studies. We divided the F1 tumor bearing mice into four groups and treated them every day subcutaneously with drugs as follows: i) PBS control, (ii) 50 mg/kg body weight NSC49L, (iii) 20 mg/kg body weight 5-FU, and iv) 50 and 20 mg/kg body weight NSC49L and 5-FU, respectively, for 30 days. The treatment with drugs began after 10 days of tumor growth. The body weight and tumor volumes were recorded twice a weak. The experiment was terminated on the 32nd day.

[2] = test system: FOLFOX-resistant-HT29 cells; assay: Cell survival (MTT assay), FOLFOX-resistant-HT29; assay type: cell-based; conditions: Homo sapiens, FOLFOX-resistant HT-29, 48 h
Procedure: In some experiments, 5-FU, leucovorin and oxaliplatin (FOLFOX)-resistant-HCT-116 and FOLFOX-resistant-HT29 cells were used. These cells were obtained from Dr. Adhip P. Majumdar (John D. Dingell VA Medical Center, Detroit, MI). These cells were generated by exposure to clinically relevant doses and schedules. The exposing schedule was for 12 cycles; each cycle lasted for one week. Briefly, the cells were first exposed to FOLFOX (25 μM 5-FU and 0.625 μM oxaliplatin) for 72 hours. The surviving cells were then cultured in normal medium without the drugs for 4 to 5 days. This cycle was repeated 12 times. The surviving cells were then split and exposed to higher doses of FOLFOX (50 μM 5-FU + 1.25 μM oxaliplatin or 100 μM 5-FU + 2.5 μM oxaliplatin) for 2 to 3 days per week for approximately 4 weeks. […]
The survival of cells was determined by MTT (3-(4,5-Dimethylthiazol-2yl-)-2,5-diphenyl tetrazolium bromide) assay (ATCC, Manassas, VA, USA). In principle, the viable cell number is directly proportional to the purple formazan color of the reduced MTT dye, which can be quantitatively measured by spectrophotometry. […] The developed color density was then measured spectrophotometrically at 570 nm using the POLARstar Omega micro-plate reader (BMG Labtech, Inc., Cary, NC, USA).

LoVo cells = assay: Cell survival (MTT assay), LoVo; assay type: cell-based; conditions: Homo sapiens, drug alone, 48 h
Procedure: (§1) The survival of cells was determined by MTT (3-(4,5-Dimethylthiazol-2yl-)-2,5-diphenyl tetrazolium bromide) assay (ATCC, Manassas, VA, USA). In principle, the viable cell number is directly proportional to the purple formazan color of the reduced MTT dye, which can be quantitatively measured by spectrophotometry. Briefly, 1,500 cells were plated in quadruplets in 96-well flat-bottom tissue culture plates. After treatment with compounds for certain periods as described in respective figure legends, 10 μl of MTT reagent was added to each well and incubated at 37°C for 4 h to allow the formation of purple color crystals of formazan. In total, 100 μl of detergent solution was added to each well, and the reaction mixture was incubated in dark for 2–4 h at room temperature. The developed color density was then measured spectrophotometrically at 570 nm using the POLARstar Omega micro-plate reader (BMG Labtech, Inc., Cary, NC, USA).

[3] = Maximum tolerated dose and pathological analysis of organs; assay type: in vivo, male SCID mice
Procedure: We have determined the MTD of NSC49L from male homozygous CB17 scid/scid (SCID) mice obtained from Tacomic Farms (Germantown, NY, USA). The mice were treated subcutaneously at 25, 50, and 75 mg/kg body weight for 5 consecutive days followed by observation for an additional 7 days. Every day body weight was recorded and behavioral changes were monitored in the treated versus control animals. After the 7th day animals were sacrificed and the organs from the mice treated at 75 mg/kg body weight were processed for pathological examination. Different organs were fixed in 10% buffered formalin, then sectioned and processed into paraffin blocks. Tissue sections were cut 4–5 μm thick and stained with hematoxylin and eosin. Histologic differences between control (A) and treated (B) mice were recorded and photomicrographs were taken with Olympus, BX41 microscope with attached camera.

[4] = test system: γH2AX(S139P)-foci in CA2 cells; assay: γH2AX(S139P)-foci IHC staining, CA2; assay type: cell-based, human; conditions: 24 h
CA2 CRC stem cell line = assay: Spheroid (sphere) formation assay; assay type: cell-based; conditions: Homo sapiens; drug alone, seventh day
Procedure: Live CA2 cells (100) were seeded in 384-well ultra-low attachment plates. Next, day cells were treated with different concentrations of NSC49L and 5-FU either alone or in combination. Cells were incubated for 7 days and the number of spheroids were counted in control and treated groups under an Olympus inverted microscope with a 10× magnification.

SW480 cells = assay: Cell survival (MTT assay), SW480; assay type: cell-based; conditions: Homo sapiens, drug alone, 48 h
Procedure: as §1

[5] = test system: Chk1 phosphorylation in HCT-116 cells; assay: Western blot of total and phosphorylated Chk1, HCT-116; assay type: cell-based, human; conditions: NSC49L alone, 24 h
Procedure: (§2) The levels of various proteins were determined by Western blot analysis with our previously described procedure. The antibodies for phospho-Chk1(Ser317), phospho-Chk1(Ser317), phospho-Chk1(Ser319), phospho-Chk1(Ser345), Chk1, and GAPDH were purchased from Cell Signaling Technology (Danvers, MA, USA).

HT29 cells = assay: Cell cycle profile by FACS; assay type: cell-based, human; conditions: 2 mM HU 24 h
Procedure: For determining the cell cycle profile, cells were plated in 60 mm tissue culture dishes and grown until 60% confluence. […] After treatment, cells were harvested at different time intervals, washed with ice-cold PBS and processed for FACS analysis as described previously. The ranges for G0/G1, S, and G2/M phase arrested and sub-G1 apoptotic cells were established on the basis of the corresponding DNA content of the histograms. At minimum, 10,000 cells were counted from each sample.

[6] = test system: γH2AX(S139P)-foci in HCoEpiC cells; assay: γH2AX(S139P)-foci IHC staining, HCoEpiC; assay type: cell-based, human; conditions: NSC49L alone or in combination with 5-FU, 24 h
[7] = test system: Chk1 phosphorylation in CA2 cells; assay: Western blot of total and phosphorylated Chk1, CA2; assay type: cell-based, human; conditions: NSC49L alone, 24 h
Procedure: as §2

[8] = HU withdrawn, then 20 μM NSC49L 8 h
[9] = then 20 μM NSC49L additional 8 h in presence of HU

Compound: ClC/C=C/C[N+]12CN3CN(CN(C3)C1)C2 [NSC49L]
- Growth of CRC stem cell tumors [1]: significant growth inhibition
- IC50 [2]: 3.1 µM
- IC50 (LoVo cells): 4.2 ± 0.1 µM
- Histologic sections of organs ([3]; 75 mg/kg body weight, bone marrow, brain, kidney, liver, lung, pancreas): no significant differences between control and treated mice
- Body weight, behavior, pathological abnormalities ([3]; 25, 50 and 75 mg/kg body weight, 5 consecutive days, 7 days observation, treated versus control): no change in body weight, behavior, or pathological abnormalities
- γH2AX(S139P)-foci ([4]; NSC49L alone): increased
- γH2AX(S139P)-foci ([4]; NSC49L in combination with 5-FU): further increased
- IC50 (CA2 CRC stem cell line): 4.8 µM
- IC50 (SW480 cells): 4.4 ± 0.2 µM
- Chk1(S317P) and Chk1(S296P) levels [5]: no effect
- Chk1(S345P) levels [5]: dose-dependent increase
- Cell cycle distribution G2/M (HT29 cells; [8]): 26.1%
- Cell cycle distribution S (S-phase arrest) (HT29 cells; [8]): 50.6%
- Cell cycle distribution S (S-phase arrest) (HT29 cells; [9]): 39.7%
- Entry of G2/M-phase (HT29 cells; [9]): complete blockage to the entry of G2/M-phase
- replication stress-mediated DNA damage (γH2AX(S139P)-foci) [6]: no effect
- Chk1(S317P) and Chk1(S296P) levels [7]: very little change
- Chk1(S345P) level [7]: increase in a dose-dependent manner
